Where two headings read alike, the source gives them in different places.
Experiments:
[1] = molecular target: CYP1A2 (Homo sapiens (Human), UniProt P05177); experiment: Cyp enzyme inhibition assay in human liver microsomes, CYP1A2; assay type: in vitro ADME; settings: CYP1A2, substrate phenacetin
Experimental: The ability of the compound I-1 to inhibit human metabolizing enzymes CYP3A4, CYP2C9, […], CYP2C19 and CYP1A2, was assessed using those enzymes found collectively in human liver microsomes. The test compound I-1 was prepared as a solution in DMSO or acetonitrile and plated in duplicate rows of a 96-well plate (Nunc) for a final assay concentration of 40 μM in 0.2% DMSO (or 2% acetonitrile) in the first column and serially diluted two-fold going down the row. A known selective inhibitor of a given CYP enzyme listed in Table 8 was selected as the appropriate positive control. For each CYP enzyme inhibition assay, an appropriate enzyme-substrate mixture was prepared to afford a final assay concentration of 75 mM KPO4/pH 7.4, 6.5 mM MgCl2, 0.25 mg/mL pooled male and female human liver microsome (CellzDirect lot HMMC-PL020) with the amounts of the appropriate substrate for each CYP enzyme assay given in Table 8. The enzyme-substrate mixture was added to columns 1 through 10 and column 11 served as a negative control with enzyme solution lacking substrate. A solution of NADPH (Calbiochem) was then added to all rows except for one where NADPH would be added after the incubation period, in order to detect NADPH-independent non-CYP-mediated metabolism. The plate was briefly vortexed and left to shake in a 37° C. water bath for 20 minutes. […]

[2] = molecular target: FLT3 (ITD) (Homo sapiens, UniProt P36888, ITD); experiment: biochemical; assay type: binding
Experimental: (§1) Competition binding assays used herein were developed, validated and performed as described in Fabian et al., Nature Biotechnology 2005, 23, 329-336. Kinases were produced as fusions to T7 phage (See, Fabian et al. or WO04/015142) or alternatively, the kinases were expressed in HEK-293 cells and subsequently tagged with DNA for PCR detection (See, WO08/005,310). […] The liganded beads were blocked with excess biotin and washed with blocking buffer (SeaBlock (Pierce), 1% BSA, 0.05% Tween 20, 1 mM DTT) to remove unbound ligand and to reduce non-specific binding. […] Test compounds were prepared as 100× stocks in DMSO and rapidly diluted into the aqueous environment. DMSO was added to control assays lacking a test compound. […] The kinase concentration in the eluates was measured by quantitative PCR. Each kinase was tested individually against each compound. Kds were determined using eleven serial threefold dilutions.

[3] = molecular target: FLT3 (K663Q) (Homo sapiens (Human), UniProt P36888, K663Q); experiment: biochemical; assay type: binding
Experimental: as §1

[4] = molecular target: CYP3A4 (Homo sapiens (Human), UniProt P08684); experiment: Time dependant inhibition in human liver microsomes, CYP3A4; assay type: in vitro ADME; settings: CYP3A4, 10 μM, pre-incubation 0-30 minutes
Experimental: For each CYP isoform tested, 10 μM Compound I-1 was pre-incubated with pooled male and female human liver microsomes with NADPH in a 37° C. shaking water bath in duplicate to afford a final pre-incubation assay concentration of 100 mM KPO4/pH 7.4, 10 mM MgCl2, 2 mg/mL of human liver microsome (CellzDirect lot HLM HMMC-PL020) and 1 mM NADPH (Calbiochem). At each pre-incubation time point (0, 5, 10, 20, and 30 minutes) 20 μL was removed and placed in a second 96 well plate on ice. After all pre-incubation time points were collected 180 uL of additional human microsome liver preparation containing the appropriate CYP specific substrate at its Km concentration listed in Table 11 plus NADPH, was added to each time point. The samples were incubated for an additional 10 minutes in a 37° C. shaking water bath and then quenched with 75:25 acetonitrile (ACN):water containing the appropriate internal standards listed in Table 11. After brief mixing, the plate was centrifuged and the supernatant removed for analysis by LC/MS/MS (API 4000 Qtrap) for the formation of 6-hydroxy-testosterone (CYP3A4), 4-hydroxy-mephenyloin (CYP2C19), or 6-hydroxy-taxol (CYP2C8). […] Consistent with Example 5, Compound I-1 did inhibit CYP2C8-mediated metabolite formation at 10 μM, but not in a time dependent manner.

[5] = molecular target: CYP2C8 (Homo sapiens (Human), UniProt P10632); experiment: Inhibitory constant KI in human liver microsomes, CYP2C8; assay type: in vitro ADME; settings: CYP2C8, global non-linear regression
Experimental: A 2 mM stock of Compound I-1 was prepared in acetonitrile (ACN) and serially diluted 2-fold from 2000 μM to 15.63 μM in ACN. […] Individual human liver microsome preparations containing the substrate were then incubated with Compound I-1 (final concentration range 40 μM to 0.31 μM of Compound I-1) for a final incubation concentration of 0.5 mg/mL microsome, 75 mM KPO4, 6.5 mM MgCl2, 1 mM NADPH and 2% acetonitrile (ACN). The samples were incubated in a 37° C. shaking water bath for 20 minutes then quenched with ACN:water (75:25) containing internal standards propranolol at 0.3 ng/mL and cortisone at 0.3 ng/mL. After brief mixing, the plate was centrifuged and the supernate removed for analysis by LC/MS/MS (API 4000 Qtrap) for formation of 6-hydroxy-testosterone (CYP3A4), 4-hydroxy-mephenyloin (CYP2C19) or hydroxy-taxol (CYP2C8). The data was analyzed using global non-linear regression software (GraphPad Prism) and the overall fit of the data (R^2) was used to determine if Compound I-1 was a competitive, non-competitive, or uncompetitive inhibitor. In addition the data was plotted as a Lineweaver-Burke graph (1/V versus 1/S, where V is the […] and S is the substrate concentration) for each inhibitor concentration. Based on the location of convergence (competitive and non-competitive) or non convergence (uncompetitive) of the plots at each inhibitor concentration, the type of inhibition was determined.
Global non-linear regression allows analysis of all the individual inhibitor curves simultaneously and determines the best fit value for shared parameters between the data sets, in this case KI (or KI′). The results of the global nonlinear analysis of Compound I-1 inhibition of the CYP450 isoforms 3A4, 2C19 and 2C8 are shown in Table 12.

[6] = molecular target: hERG channel (Homo sapiens (Human), UniProt Q12809); experiment: hERG channel inhibition, whole cell recordings in CHO cells; settings: 10 μM
Experimental: Test articles in this study were therefore characterized to determine their ability to inhibit the hERG channel. Ion channel activity was measured using a stably transfected Chinese Hamster Ovary (CHO) cell line expressing the hERG mRNA.
A CHO cell line stably expressing hERG channels was obtained from Aviva Systems Biology LLC and used for the study. Cells were cultured in DMEM/F12 containing 10% FBS, 1% penicillin/streptomycin and 500 μg/ml G418. Before testing, cells were harvested using Accumax (Innovative Cell Technologies).
Whole cell recordings were performed using PX 7000A (Axon Instruments) with AVIVA's SealChip™ technology. Cells were voltage clamped at a holding potential of −80 mV. The hERG current was then activated by a depolarizing step to −50 mV for 300 ms. This first step at −50 mV was used as a baseline for measuring peak amplitude of the tail current. Next, a voltage step to +20 mV was applied for 5 s to activate the channels. Finally a step back to −50 mV for 5 s removed activation and the deactivating tail current was recorded.
All compounds were prepared from either 10 or 30 mM DMSO stock solutions. Solutions were mixed by sonication for 20 min, followed by vigorous vortexing. […]
After achieving whole cell configuration, cells were monitored for 90 s to assess stability and then washed with External Solution for 66 s. […]

[7] = molecular target: P-Glycoprotein (Homo sapiens (Human), UniProt P08183); experiment: Digoxin bidirectional MDR1-MDCK permeability, Compound I-1 as an inhibitor; settings: Surf.
Experimental: MDR1-MDCK cells were grown to confluence for 5-10 days on 1 μm filters in 24-well plate. Aliquots of DMSO solute stocks were diluted into Hank's balanced salt solution (HBSS) pH 7.4 containing 25 mM HEPES+−0.05% PS80 to give 0.5, 1.5 or 5.0 μM solute concentrations. Final concentrations of DMSO in the assayed samples ranged from 0.005% for the 0.5 μM concentration to 0.05% for the 5 μM concentration. […] The solute containing donor solutions were transferred to either the apical or basolateral chamber of the permeability diffusion apparatus. Receiver solutions consisted of Hank's balanced salt solution (HBSS) pH 7.4 containing 25 mM HEPES+0.05% PS80. The entire receiver solution was removed at 20 minute intervals and manually replaced with fresh buffer. The concentration of transported solute during each sampling interval was determined by HPLC/UV/MS. The standard curve was produced from serial dilutions of the dosing solution. D0 was a 50 μl aliquot of dosing solution from the donor well diluted with 450 μl of HBSS. The standard curve was produced from serial dilutions of the dosing solution (1:10, 1:25, 1:50, 1:100, 1:500 and 1:1000). Permeability coefficients were calculated for each sampling interval using the following equation:
[formula] Where VD=volume of donor (0.4 ml for Ap_Bl flux and 1.0 ml for Bl_Ap flux), A=surface area of the filter on which the monolayer was grown (0.31 cm2), MD(0)=mass in the donor at the beginning of the ith sampling interval, MR (t)=mass in the receiver at time t, and _t is the experimental interval (20 minutes). The apparent permeability, Papp, is then calculated as the average:
The average and standard deviation from the intervals is reported. Mass balance in the system was ascertained by comparing the sum of total transported solute and remaining donor solute with the starting mass of solute and is expressed as a percentage of donor solute at time zero. […] At the termination of the experiment, the cell monolayers are stored in the cold until the data is analyzed. After analysis, if mass balance falls below 70% in a given experiment, those monolayers are retrieved and extracted with acetonitrile. After separation of cellular debris, the extract is analyzed for recoverable solute of interest. […] All determinations were performed in duplicate.

[8] = Table 17, Digoxin 1 μM + Compound I-1 5.0 μM
[9] = preliminary experiment, Digoxin 1 μM + Compound I-1 0.5 μM
[10] = preliminary experiment, Digoxin 1 μM + Compound I-1 1.5 μM
[11] = preliminary experiment, Digoxin 1 μM + Compound I-1 5.0 μM

CYP2C8, sequence (P10632 whole entry): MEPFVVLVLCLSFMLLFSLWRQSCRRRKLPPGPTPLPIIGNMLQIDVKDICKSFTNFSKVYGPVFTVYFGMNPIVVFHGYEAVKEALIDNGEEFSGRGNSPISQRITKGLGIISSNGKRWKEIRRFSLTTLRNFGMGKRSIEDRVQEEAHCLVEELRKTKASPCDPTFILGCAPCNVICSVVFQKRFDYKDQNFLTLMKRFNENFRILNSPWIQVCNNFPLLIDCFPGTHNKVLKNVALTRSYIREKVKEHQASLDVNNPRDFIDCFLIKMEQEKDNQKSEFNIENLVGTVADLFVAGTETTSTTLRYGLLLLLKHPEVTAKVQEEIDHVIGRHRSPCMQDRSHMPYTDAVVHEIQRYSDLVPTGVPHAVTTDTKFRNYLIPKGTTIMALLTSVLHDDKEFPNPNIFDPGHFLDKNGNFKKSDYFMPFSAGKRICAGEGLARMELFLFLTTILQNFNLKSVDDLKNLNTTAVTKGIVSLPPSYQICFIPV
P-Glycoprotein, sequence (P08183 whole entry): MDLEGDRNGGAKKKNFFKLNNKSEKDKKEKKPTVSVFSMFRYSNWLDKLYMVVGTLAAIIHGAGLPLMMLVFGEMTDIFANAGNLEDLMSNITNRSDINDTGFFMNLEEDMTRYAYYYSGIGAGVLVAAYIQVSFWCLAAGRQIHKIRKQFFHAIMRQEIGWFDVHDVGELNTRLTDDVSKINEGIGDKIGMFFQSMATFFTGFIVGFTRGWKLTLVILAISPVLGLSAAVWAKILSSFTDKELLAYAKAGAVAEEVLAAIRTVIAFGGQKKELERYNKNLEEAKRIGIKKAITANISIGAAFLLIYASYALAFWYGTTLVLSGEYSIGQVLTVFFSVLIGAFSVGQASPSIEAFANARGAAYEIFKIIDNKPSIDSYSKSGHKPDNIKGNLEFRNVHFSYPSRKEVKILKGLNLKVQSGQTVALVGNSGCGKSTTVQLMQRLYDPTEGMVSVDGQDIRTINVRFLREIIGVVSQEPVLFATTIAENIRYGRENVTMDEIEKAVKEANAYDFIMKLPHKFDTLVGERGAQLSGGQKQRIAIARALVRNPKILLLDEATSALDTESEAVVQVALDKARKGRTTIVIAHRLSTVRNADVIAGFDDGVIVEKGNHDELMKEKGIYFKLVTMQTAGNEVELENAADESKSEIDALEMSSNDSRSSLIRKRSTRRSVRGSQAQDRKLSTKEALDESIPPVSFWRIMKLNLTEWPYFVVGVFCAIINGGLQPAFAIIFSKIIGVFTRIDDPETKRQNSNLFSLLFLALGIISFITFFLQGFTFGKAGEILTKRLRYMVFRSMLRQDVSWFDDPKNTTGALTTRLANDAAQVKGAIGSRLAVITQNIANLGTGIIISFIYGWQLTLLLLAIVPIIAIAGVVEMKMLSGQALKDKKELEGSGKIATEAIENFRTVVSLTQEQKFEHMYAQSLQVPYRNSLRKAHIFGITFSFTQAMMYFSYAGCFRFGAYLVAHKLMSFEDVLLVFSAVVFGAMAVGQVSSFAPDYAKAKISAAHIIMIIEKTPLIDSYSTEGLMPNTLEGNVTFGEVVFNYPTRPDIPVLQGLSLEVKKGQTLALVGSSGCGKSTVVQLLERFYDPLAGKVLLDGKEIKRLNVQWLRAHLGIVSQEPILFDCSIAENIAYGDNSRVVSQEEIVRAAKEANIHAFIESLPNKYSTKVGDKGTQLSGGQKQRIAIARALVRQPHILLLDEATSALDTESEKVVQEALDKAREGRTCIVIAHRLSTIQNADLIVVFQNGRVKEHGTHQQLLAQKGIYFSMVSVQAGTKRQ
hERG channel, sequence (Q12809 whole entry): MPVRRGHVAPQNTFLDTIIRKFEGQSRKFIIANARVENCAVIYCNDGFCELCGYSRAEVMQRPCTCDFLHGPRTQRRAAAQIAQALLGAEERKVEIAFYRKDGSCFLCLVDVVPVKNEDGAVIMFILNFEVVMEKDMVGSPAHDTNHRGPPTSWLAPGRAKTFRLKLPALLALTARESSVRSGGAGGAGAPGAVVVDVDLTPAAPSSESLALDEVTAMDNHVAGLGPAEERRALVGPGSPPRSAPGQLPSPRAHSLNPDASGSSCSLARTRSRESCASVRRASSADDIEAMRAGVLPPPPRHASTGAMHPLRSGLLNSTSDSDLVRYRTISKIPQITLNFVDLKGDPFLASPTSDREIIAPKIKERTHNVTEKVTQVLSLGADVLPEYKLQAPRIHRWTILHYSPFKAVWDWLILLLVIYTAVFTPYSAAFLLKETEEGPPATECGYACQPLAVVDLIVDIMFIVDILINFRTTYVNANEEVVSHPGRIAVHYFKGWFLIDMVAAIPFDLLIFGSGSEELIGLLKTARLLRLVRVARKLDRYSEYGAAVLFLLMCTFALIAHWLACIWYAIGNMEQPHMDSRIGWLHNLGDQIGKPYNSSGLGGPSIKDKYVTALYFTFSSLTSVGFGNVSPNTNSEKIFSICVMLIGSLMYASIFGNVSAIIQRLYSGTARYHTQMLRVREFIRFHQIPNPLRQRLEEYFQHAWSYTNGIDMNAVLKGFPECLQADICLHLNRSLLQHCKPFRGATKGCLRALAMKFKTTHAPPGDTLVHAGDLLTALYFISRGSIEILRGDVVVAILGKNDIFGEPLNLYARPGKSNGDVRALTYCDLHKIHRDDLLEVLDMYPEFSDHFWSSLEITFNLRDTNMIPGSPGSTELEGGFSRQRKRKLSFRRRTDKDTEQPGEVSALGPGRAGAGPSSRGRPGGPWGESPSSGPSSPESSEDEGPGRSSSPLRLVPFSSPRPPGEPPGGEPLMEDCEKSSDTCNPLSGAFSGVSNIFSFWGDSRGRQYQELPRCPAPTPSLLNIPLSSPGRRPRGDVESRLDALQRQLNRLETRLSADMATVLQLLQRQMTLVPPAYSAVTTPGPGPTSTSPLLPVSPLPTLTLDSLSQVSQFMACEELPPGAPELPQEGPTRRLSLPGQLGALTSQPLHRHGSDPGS
CYP1A2, sequence (P05177 whole entry): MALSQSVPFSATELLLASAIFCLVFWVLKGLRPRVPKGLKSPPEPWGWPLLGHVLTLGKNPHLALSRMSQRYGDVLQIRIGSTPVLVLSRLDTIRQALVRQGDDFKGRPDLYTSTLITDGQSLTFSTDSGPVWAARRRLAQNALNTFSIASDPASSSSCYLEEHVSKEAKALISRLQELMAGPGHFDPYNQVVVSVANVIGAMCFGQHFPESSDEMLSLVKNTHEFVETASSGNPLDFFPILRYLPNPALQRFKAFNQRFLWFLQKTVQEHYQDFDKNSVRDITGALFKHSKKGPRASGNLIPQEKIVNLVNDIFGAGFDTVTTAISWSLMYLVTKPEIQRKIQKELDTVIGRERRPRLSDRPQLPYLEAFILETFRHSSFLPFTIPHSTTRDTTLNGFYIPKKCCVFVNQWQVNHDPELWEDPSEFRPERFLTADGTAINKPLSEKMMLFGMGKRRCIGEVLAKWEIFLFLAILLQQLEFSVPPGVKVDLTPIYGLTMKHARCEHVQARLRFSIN
CYP3A4, sequence (P08684 whole entry, canonical isoform): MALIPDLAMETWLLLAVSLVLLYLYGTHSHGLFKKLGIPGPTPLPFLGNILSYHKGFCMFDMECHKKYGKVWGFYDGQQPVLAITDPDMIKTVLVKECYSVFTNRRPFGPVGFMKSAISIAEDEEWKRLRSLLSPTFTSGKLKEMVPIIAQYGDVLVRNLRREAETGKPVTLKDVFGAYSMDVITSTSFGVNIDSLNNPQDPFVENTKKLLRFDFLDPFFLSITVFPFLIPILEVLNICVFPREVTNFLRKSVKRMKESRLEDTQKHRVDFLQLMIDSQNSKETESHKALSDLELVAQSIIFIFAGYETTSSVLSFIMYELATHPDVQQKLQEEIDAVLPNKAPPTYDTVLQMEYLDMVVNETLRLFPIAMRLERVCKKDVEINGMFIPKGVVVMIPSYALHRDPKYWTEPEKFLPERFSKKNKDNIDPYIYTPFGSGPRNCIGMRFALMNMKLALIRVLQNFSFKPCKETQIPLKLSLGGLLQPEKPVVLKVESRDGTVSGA

CC(C)(CO)c1cc(NC(=O)Nc2ccc(-c3cn4c(n3)sc3cc(OCCN5CCOCC5)ccc34)cc2)no1 [Compound I-1, 1-[5-(2-hydroxy-1,1-dimethyl-ethyl)-isoxazol-3-yl]-3-{4-[7-(2-morpholin-4-yl-ethoxy)-benzo[d]imidazo[2,1-b]thiazol-2-yl]-phenyl}-urea]
IC50 [1]: > 40 µM
Kd [2]: 0.0088 µM
Kd [3]: 0.00069 µM
Time dependant inhibition [4]: not a time dependant inhibitor
Ki ([5]; read-out: Best Fit KI, Competitive): 22.1 µM
Ki ([5]; read-out: Best Fit KI, Non-competitive): 60.8 µM
Ki ([5]; read-out: Best Fit KI′, Uncompetitive): 37.7 µM
% Block Trial 1 [6]: <10%
% Block Trial 2 [6]: <10%
Digoxin Mass Bal (AP→BL) [7, 8]: 104%
Digoxin Mass Bal (BL→AP) [7, 8]: 98%
Digoxin Mass Bal (AP→BL) [7, 9]: 98%
Digoxin Mass Bal (BL→AP) [7, 9]: 91%
Digoxin Mass Bal (AP→BL) [7, 10]: 98%
Digoxin Mass Bal (BL→AP) [7, 10]: 94%
Digoxin Mass Bal (AP→BL) [7, 11]: 93%
Digoxin Mass Bal (BL→AP) [7, 11]: 99%
